ChEMBL document CHEMBL4382203, “Discovery, cocrystallization and biological evaluation of novel piperidine derivatives as high affinity Ls-AChBP ligands possessing α7 nAChR activities” (Eur J Med Chem, 2018)
pEC50, pKi: −log10 of the molar value. The source made the active and inactive calls. No cut-off for these calls is given here.

Assays:
[1] = target: Acetylcholine-binding protein (Lymnaea stagnalis, UniProt P58154); assay: Displacement of [3H]epibatidine from Lymnaea stagnalis acetylcholine-binding protein incubated for 60 mins followed by 3 hrs incubation in dark condition by microbeta counting analysis
Sequence of Acetylcholine-binding protein (P58154 whole entry): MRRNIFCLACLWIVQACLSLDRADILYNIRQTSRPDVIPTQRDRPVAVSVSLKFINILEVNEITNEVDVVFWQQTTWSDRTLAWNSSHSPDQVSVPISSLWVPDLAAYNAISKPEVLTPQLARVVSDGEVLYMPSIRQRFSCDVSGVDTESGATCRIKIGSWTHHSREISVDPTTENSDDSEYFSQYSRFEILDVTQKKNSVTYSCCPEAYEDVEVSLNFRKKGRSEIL

[2] = target: T1, Neuronal acetylcholine receptor subunit alpha-7 (Homo sapiens, UniProt P36544); assay: Partial agonist activity at human alpha7 nAChR at 100 uM at -60 mV holding potential incubated for 1 sec followed by 60 secs compound washout relative to acetylcholine
T1 sequence (P36544 whole entry): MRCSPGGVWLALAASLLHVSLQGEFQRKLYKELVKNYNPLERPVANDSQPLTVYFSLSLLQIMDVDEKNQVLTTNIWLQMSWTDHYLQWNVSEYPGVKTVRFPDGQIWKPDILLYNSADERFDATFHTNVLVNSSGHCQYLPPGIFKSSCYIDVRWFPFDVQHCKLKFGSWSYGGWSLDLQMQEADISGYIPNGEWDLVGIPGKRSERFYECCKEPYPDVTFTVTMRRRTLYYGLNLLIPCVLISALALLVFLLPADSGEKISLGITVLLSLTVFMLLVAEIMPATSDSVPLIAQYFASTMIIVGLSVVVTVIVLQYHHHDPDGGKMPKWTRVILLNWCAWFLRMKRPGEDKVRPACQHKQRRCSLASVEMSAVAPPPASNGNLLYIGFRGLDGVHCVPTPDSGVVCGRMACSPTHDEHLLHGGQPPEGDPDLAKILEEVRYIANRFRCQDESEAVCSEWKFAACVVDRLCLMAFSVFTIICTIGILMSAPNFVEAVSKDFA

[3] = target: T1, Neuronal acetylcholine receptor subunit alpha-7; assay: Antagonist activity at human alpha7 nAChR assessed as inhibition of acetylcholine-induced response at 100 uM at -60 mV holding potential incubated for 30 secs followed by acetylcholine addition and subsequent compound washout for 30 secs relative to acetylcholine
[4] = target: T1, Neuronal acetylcholine receptor subunit alpha-7; assay: Antagonist activity at human alpha7 nAChR assessed as inhibition of acetylcholine-induced response at 1 uM at -60 mV holding potential incubated for 30 secs followed by acetylcholine addition and subsequent compound washout for 30 secs relative to acetylcholine
[5] = target: Acetylcholine-binding protein (Lymnaea stagnalis) (UniProt P58154); assay: Displacement of [3H]epibatidine from Lymnaea stagnalis acetylcholine-binding protein at 100 nM incubated for 60 mins followed by 3 hrs incubation in dark condition by microbeta counting analysis relative to control
Sequence of Acetylcholine-binding protein (Lymnaea stagnalis) (P58154 whole entry): as the sequence (P58154 whole entry) above

[6] = target: Neuronal acetylcholine receptor; alpha4/beta2 (Homo sapiens) (UniProt P17787+P43681); assay: Agonist activity at alpha4beta2 nAChR (unknown origin) at -60 mV holding potential incubated for 1 sec followed by 60 secs compound washout; format: protein-complex assay
[7] = AUC (0 to infinity) in ICR mouse at 2 mg/kg, iv; format: ADME, organism-based; set-up: dose 2 mg/kg, route intravenous, time infinity; settings: in vivo
[8] = Ratio of drug level in blood to plasma in ICR mouse at 10 mg/kg, po after 4 hrs; format: ADME, organism-based; settings: blood and plasma
[9] = Tmax in ICR mouse at 10 mg/kg, po; format: ADME, organism-based; settings: in vivo
[10] = Cmax in ICR mouse at 10 mg/kg, po; format: ADME, organism-based; set-up: dose 10 mg/kg, route oral; settings: in vivo
[11] = Cmax in ICR mouse at 2 mg/kg, iv; format: ADME, organism-based; set-up: dose 2 mg/kg, route intravenous; settings: in vivo
[12] = AUC (0 to infinity) in ICR mouse at 10 mg/kg, po; format: ADME, organism-based; set-up: dose 10 mg/kg, time infinity, route oral; settings: in vivo
[13] = Ratio of drug level in blood to plasma in ICR mouse at 2 mg/kg, iv after 4 hrs; format: ADME, organism-based; settings: blood and plasma
[14] = Half life in ICR mouse at 10 mg/kg, po; format: ADME, organism-based; settings: in vivo
[15] = Oral bioavailability in ICR mouse at 10 mg/kg; format: ADME, organism-based; settings: in vivo
[16] = Tmax in ICR mouse at 2 mg/kg, iv; format: ADME, organism-based; settings: in vivo
[17] = Half life in ICR mouse at 2 mg/kg, iv; format: ADME, organism-based; settings: in vivo
[18] = Apparent volume of distribution in ICR mouse at 2 mg/kg, iv; format: ADME, organism-based; settings: in vivo, read-out: Vz
[19] = target: T1, Neuronal acetylcholine receptor subunit alpha-7; assay: Partial agonist activity at human alpha7 nAChR at -60 mV holding potential incubated for 1 sec followed by 60 secs compound washout
[20] = Clearance in ICR mouse at 2 mg/kg, iv; format: ADME, organism-based; settings: in vivo
[21] = target: T1, Neuronal acetylcholine receptor subunit alpha-7; assay: Partial agonist activity at human alpha7 nAChR expressed in Xenopus laevis oocytes by voltage clamp electrophysiological method; format: cell-based
[22] = target: T1, Neuronal acetylcholine receptor subunit alpha-7; assay: Partial agonist activity at human alpha7 nAChR expressed in Xenopus laevis oocytes at holding potential of -90 mV by patch clamp electrophysiological method; format: cell-based

Row | SMILES | pKi [1] | Efficacy [2] [%] | other results
1 | c1ccc(-c2ccc(CC3(COc4cccnc4)CCCNC3)cc2)cc1 (centres undefined) | 7.93 | 7.9 | inhibition [3]: 96.5%; inhibition [4]: 53.4%
2 | OCCC#Cc1cncc(OCC2(Cc3cccc(Cl)c3)CCCNC2)c1 (centres undefined) | 8.25 | – | –
3 | OCCCC#Cc1cncc(OCC2(Cc3cccc(Cl)c3)CCCNC2)c1 (centres undefined) | 7.90 | – | –
4 | Clc1cccc(CC2(COc3ccncc3)CCCNC2)c1 (centres undefined) | 7.78 | – | –
5 | OCCC#Cc1ccc(OCC2(Cc3cccc(Cl)c3)CCCNC2)cn1 (centres undefined) | 7.54 | – | –
6 | Clc1cccc(CC2(COc3cncc(-c4ccccc4)c3)CCCNC2)c1 (centres undefined) | < 7.17 | – | inhibition [5]: < 50%
7 | FC(F)(F)c1cccc(CC2(COc3cccnc3)CCCNC2)c1 (centres undefined) | 8.23 | 28 | Activity [6]: inactive
8 | Clc1cccc(CC2(COc3cncc(Br)c3)CCCNC2)c1 (centres undefined) | 7.65 | – | –
9 | OCCCC#Cc1ccc(OCC2(Cc3cccc(Cl)c3)CCCNC2)cn1 (centres undefined) | < 7.17 | – | inhibition [5]: < 50%
10 | Clc1ccc(CC2(COc3cccnc3)CCCNC2)cc1Cl (centres undefined) | 8.64 | – | –
11 | Cc1ccccc1CC1(COc2cccnc2)CCCNC1 (centres undefined) | 7.72 | 12.8 | –
12 | Clc1cccc(CC2(COc3cccnc3)CCCNC2)c1Cl (centres undefined) | 8.22 | 19.5 | –
13 | Clc1cccc(CC2(COc3ccc4c(c3)[nH]c3ccccc34)CCCNC2)c1 (centres undefined) | < 7.17 | – | inhibition [5]: < 50%
14 | Cc1ccc(CC2(COc3cccnc3)CCCNC2)cc1 (centres undefined) | 7.78 | 13 | –
15 | Clc1cccc(CC2(COc3ccc(Br)nc3)CCCNC2)c1 (centres undefined) | 7.94 | – | –
16 | Clc1ccccc1CC1(COc2cccnc2)CCCNC1 (centres undefined) | 7.89 | 16.8 | –

Row | SMILES | pKi [1] | Efficacy [2] [%] | other results
17 | OCCCCC#Cc1ccc(OCC2(Cc3cccc(Cl)c3)CCCNC2)cn1 (centres undefined) | 7.80 | 8.5 | –
18 | Clc1ccc(CC2(COc3cccnc3)CCNCC2)cc1Cl | – | 3.1 | Activity [6]: inactive; inhibition [3]: 94%; inhibition [4]: 27.2%
19 | Clc1cccc(CC2(COc3ccccn3)CCCNC2)c1 (centres undefined) | < 7.17 | – | inhibition [5]: < 50%
20 | OCCCCC#Cc1cncc(OCC2(Cc3cccc(Cl)c3)CCCNC2)c1 (centres undefined) | 8.46 | 4.5 | Activity [6]: inactive; inhibition [3]: 97.3%; inhibition [4]: 12.8%
21 | Clc1ccc(C[C@@]2(COc3cccnc3)CCCNC2)cc1Cl | 9.07 | 33.3 | AUC(0-inf) [7]: 0.7 µM·h; blood plasma ratio at 4 h [8]: 5.1; Activity [6]: inactive; Tmax [9]: 30 min; Cmax [10]: 1100 nM; Cmax [11]: 1000 nM; AUC(0-inf) [12]: 1.9 µM·h; blood plasma ratio at 4 h [13]: 8.8; half-life [14]: 102 min; Emax [2]: 36.1%; bioavailability [15]: 51.2%; Tmax [16]: 4.8 min; half-life [17]: 72 min; Vd [18]: 13.3 L/kg; pEC50 [19]: 4.69; clearance [20]: 129 mL/min/kg
22 | O=C(N[C@H]1CN2CCC1CC2)c1cc2cccc(Cl)c2s1 [ENCENICLINE] | – | – | pEC50 [21]: 6.41
23 | Clc1ccc(C[C@]2(COc3cccnc3)CCCNC2)cc1Cl | 7.58 | 5.5 | Activity [6]: inactive; inhibition [3]: 90.8%; inhibition [4]: 27.2%
24 | Clc1cccc(CC2(COc3cccnc3)CCCNC2)c1 (centres undefined) | 8.28 | 33.8 | –
25 | Clc1ccc(CC2(COc3cccnc3)CCCNC2)cc1 (centres undefined) | 8.01 | 18.2 | –
26 | Clc1cccc(CC2(COc3cncnc3)CCCNC2)c1 (centres undefined) | 8.28 | – | –
27 | Cc1cccc(CC2(COc3cccnc3)CCCNC2)c1 (centres undefined) | 7.91 | 14.8 | –
28 | Clc1cccc(CC2(COc3ccc(Cl)nc3)CCCNC2)c1 (centres undefined) | 8.47 | 4.4 | –
29 | FC(F)(F)c1ccc(CC2(COc3cccnc3)CCCNC2)cc1 (centres undefined) | 7.92 | 17.5 | –
30 | FC(F)(F)c1ccccc1CC1(COc2cccnc2)CCCNC1 (centres undefined) | 7.76 | 13.5 | –
31 | Cc1ccc(-c2ccc(O[C@H]3CN4CCC3CC4)cn2)cc1 | – | – | pEC50 [22]: 7.41
